One test deals with humanDOR (Homo sapiens (Human), UniProt P41143). Put plainly: Receptor binding, [3H]diprenorphine.
The target of a further test is hKOR (Homo sapiens (Human), UniProt P41145). The experiment in a line: Receptor binding, [3H]diprenorphine.
For another test, the target named is MOR (Homo sapiens (Human), UniProt P35372). Put plainly: Receptor binding, [3H]diprenorphine.
The target of a further test is μOR (Homo sapiens (Human), UniProt P35372). The experiment in a line: cell-based. It counts as cell-based.
Test [1] concerns the target μOR β-arrestin2 recruitment (Homo sapiens (Human), UniProt P35372). Put plainly: β-Arrestin2 recruitment without GRK2 co-expression (BRET). It counts as cell-based. (Activated receptors often draw arrestin, which recruitment assays turn into a signal.)
The target of test [2] is human μOR β-arrestin2 recruitment + GRK2 (Homo sapiens (Human), UniProt P35372). The experiment in a line: β-Arrestin2 recruitment with GRK2 co-expression (BRET). Conditions: GRK2 co-expressed. The test is classed as cell-based.
Setting [3] is: read-out: binding affinity Ki [nM] hDOR.

The structures appear in SMILES notation. Like-named read-outs stand apart in the source and are kept apart here.

Chain of humanDOR (P41143 whole entry): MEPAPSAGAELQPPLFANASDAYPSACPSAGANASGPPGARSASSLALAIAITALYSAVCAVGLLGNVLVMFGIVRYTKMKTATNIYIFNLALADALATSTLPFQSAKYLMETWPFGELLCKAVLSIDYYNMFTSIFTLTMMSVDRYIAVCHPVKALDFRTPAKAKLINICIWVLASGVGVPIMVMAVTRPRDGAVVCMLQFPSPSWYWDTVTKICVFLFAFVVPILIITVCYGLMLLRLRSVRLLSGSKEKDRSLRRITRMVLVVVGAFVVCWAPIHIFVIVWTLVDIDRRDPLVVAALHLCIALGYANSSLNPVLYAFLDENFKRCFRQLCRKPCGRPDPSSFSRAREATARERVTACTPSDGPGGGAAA
Chain of MOR (P35372 whole entry): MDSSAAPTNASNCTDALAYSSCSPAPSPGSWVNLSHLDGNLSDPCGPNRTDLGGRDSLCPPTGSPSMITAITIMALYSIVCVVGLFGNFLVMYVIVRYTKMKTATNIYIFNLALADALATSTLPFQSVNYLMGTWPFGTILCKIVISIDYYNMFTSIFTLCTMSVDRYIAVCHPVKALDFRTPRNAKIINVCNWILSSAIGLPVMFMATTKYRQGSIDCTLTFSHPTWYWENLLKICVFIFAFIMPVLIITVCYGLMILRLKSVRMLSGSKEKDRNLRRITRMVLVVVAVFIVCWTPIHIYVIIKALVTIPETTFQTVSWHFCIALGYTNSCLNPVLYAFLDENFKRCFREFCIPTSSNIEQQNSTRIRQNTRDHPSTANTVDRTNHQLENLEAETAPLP
Chain of hKOR (P41145 whole entry): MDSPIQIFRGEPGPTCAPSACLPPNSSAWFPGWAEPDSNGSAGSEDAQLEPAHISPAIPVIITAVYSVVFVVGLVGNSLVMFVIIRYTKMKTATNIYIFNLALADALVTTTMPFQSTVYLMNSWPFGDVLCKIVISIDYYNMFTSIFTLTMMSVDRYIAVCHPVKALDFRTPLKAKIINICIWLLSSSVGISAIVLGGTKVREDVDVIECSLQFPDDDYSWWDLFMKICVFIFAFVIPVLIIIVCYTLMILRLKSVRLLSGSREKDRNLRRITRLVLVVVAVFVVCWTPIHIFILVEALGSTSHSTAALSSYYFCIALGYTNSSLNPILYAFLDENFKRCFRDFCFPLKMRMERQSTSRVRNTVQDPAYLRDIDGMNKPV

As for `CC(Cc1csc2ccccc12)NC(=O)NC[C@H](Cc1ccc(O)cc1)N(C)C` (mixture of isomers) [DD 63L-RS], the Ki (as a rule, a dissociation constant, usually derived from enzyme kinetics or from competition with a known ligand) on humanDOR came out at 44 ± 1.4 nM; at humanDOR (setting [3]) it was 44 nM; at hKOR (binding affinity Ki [nM] hKOR), 19 nM; on hKOR (hKOR [3H]dyprenorphine Ki), 14 ± 0.71 nM; at MOR (binding affinity Ki [nM] hMOR), 14 nM; at MOR (hMOR [3H]dyprenorphine Ki) it was 16 ± 1.4 nM.

Consider `C[C@H](Cc1ccsc1)NC(=O)NC[C@H](Cc1ccccc1)N(C)C` (stereo in doubt) [BD 127LR], for which the Ki at humanDOR turned out to be 1800 ± 150 nM; at humanDOR (setting [3]), 1800 nM; at hKOR (binding affinity Ki [nM] hKOR) it was 1300 nM; at hKOR (hKOR [3H]dyprenorphine Ki), 1300 ± 300 nM.

For the compound `C[C@H](Cc1ccsc1)NC(=O)NC[C@H](Cc1ccc(O)cc1)N(C)C` [(S,R)-21, 1-[(S)-2-(Dimethylamino)-3-(4-hydroxyphenyl)propyl]-3-((R)-1-(thiophen-3-yl)propan-2-yl)urea], the “Gi/o activation / μOR agonist activity” value on μOR is “more potent partial agonist of the μOR as compared to (S,S)-21”.

As for `C[C@@H](Cc1ccsc1)NC(=O)NC[C@H](Cc1ccccc1)N(C)C` [(S,S)-12, 1-[(S)-2-(Dimethylamino)-3-phenylpropyl]-3-[(S)-1-(thiophen-3-yl)propan-2-yl]urea], at μOR, the “Gi/o activation / μOR agonist activity” value was “most potent and efficacious Gi/o signaling agonist among the four isomers”.

With `CN(CCCl)[C@H](CNC(=O)NCCc1ccccc1)Cc1ccc(O)cc1` [DD185, (S)-1-(2-((2-chloroethyl)(methyl)amino)-3-(4-hydroxyphenyl)propyl)-3-phenethylurea], the affinity on humanDOR corresponds to a Ki of 360 nM.

For the compound `CN(CCO)[C@H](CNC(=O)NCCc1ccccc1)Cc1ccc(O)cc1` [DD186, (S)-1-(2-((2-hydroxyethyl)(methyl)amino)-3-(4-hydroxyphenyl)propyl)-3-phenethylurea], the Ki on humanDOR was 1800 nM; at hKOR, 1300 nM; at MOR it was 970 nM.

For `C[C@@H](Cc1ccsc1)NC(=O)NC[C@H](Cc1ccc(O)cc1)N(C)Cc1ccccc1` [DD187, 1-((S)-2-(benzyl(methyl)amino)-3-(4-hydroxyphenyl)propyl)-3-((S)-1-(thiophen-3-yl)propan-2-yl)urea], the Ki came out at 720 nM at humanDOR, 210 nM on hKOR and 220 nM on MOR.

Regarding `COc1ccccc1CCNC(=O)NC[C@H](Cc1ccc(O)cc1)N(C)C` [DD198, (S)-1-(2-(dimethylamino)-3-(4-hydroxyphenyl)propyl)-3-(2-methoxyphenethyl)urea], the figures for the Ki on humanDOR, on hKOR (binding affinity Ki [nM] hKOR) and at MOR (binding affinity Ki [nM] hMOR) were 150 nM, 140 nM and 22 nM, respectively.

As to `COc1cccc(CCNC(=O)NC[C@H](Cc2ccc(O)cc2)N(C)C)c1` [DD200, (S)-1-(2-(dimethylamino)-3-(4-hydroxyphenyl)propyl)-3-(3-methoxyphenethyl)urea], the inhibition constant (Ki) at humanDOR was 220 nM; at hKOR, 1300 nM; at MOR it was 110 nM.

`COc1ccc(CCNC(=O)NC[C@H](Cc2ccc(O)cc2)N(C)C)cc1` [DD201, (S)-1-(2-(dimethylamino)-3-(4-hydroxyphenyl)propyl)-3-(4-methoxyphenethyl)urea]: the Ki at humanDOR was 10000 nM; on hKOR, 1500 nM; on MOR it was 330 nM.

Take `CN(C)[C@H](CNC(=O)NC(C)(C)Cc1ccsc1)Cc1ccc(O)cc1` [DD 32L, (S)-1-(2-(dimethylamino)-3-(4-hydroxyphenyl)propyl)-3-(2-methyl-1-(thiophen-3-yl)propan-2-yl)urea]: at μOR, the “Gi/o pEC50” value came out at 7.629. Further, the “Arrestin pEC50” value in test [1] is listed as 8.282. Further, the “Arrestin + GRK2 pEC50” value in test [2] was found to be 7.306.

Take `CN(C)[C@H](CNC(=O)NC(C)(C)Cc1ccccc1)Cc1ccc(O)cc1` [DD 33L, (S)-1-(2-(dimethylamino)-3-(4-hydroxyphenyl)propyl)-3-(2-methyl-1-phenylpropan-2-yl)urea]: the “Gi/o pEC50” value on μOR is listed as 7.008. Further, the “Arrestin + GRK2 pEC50” value in test [2] came out at 6.874.

Consider `C[C@@H](Cc1ccsc1)NC(=O)NC[C@H](Cc1cccc(O)c1)N(C)C` [DD 47LS, 1-((S)-2-(dimethylamino)-3-(3-hydroxyphenyl)propyl)-3-((S)-1-(thiophen-3-yl)propan-2-yl)urea], for which the “Gi/o pEC50” value on μOR was determined as 7.77. Moreover, the “Arrestin pEC50” value in test [1] was determined as 6.447. In addition, the “Arrestin + GRK2 pEC50” value in test [2] worked out at 6.676.

On to `C[C@H](NC(=O)NC[C@H](Cc1ccc(O)cc1)N(C)C)c1ccccc1` [DD 53LS, 1-((S)-2-(dimethylamino)-3-(4-hydroxyphenyl)propyl)-3-((S)-1-phenylethyl)urea], for which the “Gi/o pEC50” value on μOR stood at 8.512. Besides, the “Arrestin pEC50” value in test [1] turned out to be 7.168. The “Arrestin + GRK2 pEC50” value in test [2] is listed as 7.059.

Consider `C[C@@H](Cc1ccccc1)NC(=O)NC[C@H](Cc1ccc(O)cc1)N(C)C` [DD 61L-B, 1-((S)-2-(dimethylamino)-3-(4-hydroxyphenyl)propyl)-3-((S)-1-phenylpropan-2-yl)urea], for which the “Gi/o pEC50” value at μOR is given as 7.45. For the same compound, in test [1], the “Arrestin pEC50” value was determined as 7.075. In addition, the “Arrestin + GRK2 pEC50” value in test [2] was 6.556.

As for `C[C@@H](Cc1csc2ccccc12)NC(=O)NC[C@H](Cc1ccc(O)cc1)N(C)C` [DD 63L-LB], at μOR, the “Gi/o pEC50” value is reported as 8.244. Moreover, the “Arrestin pEC50” value in test [1] came to 6.401. In addition, the “Arrestin + GRK2 pEC50” value in test [2] is recorded as 7.086.

Turning to `CN(C)[C@H](CNC(=S)NCCc1ccsc1)Cc1ccc(O)cc1` [DD 81, (S)-1-(2-(dimethylamino)-3-(4-hydroxyphenyl)propyl)-3-(2-(thiophen-3-yl)ethyl)thiourea], the “Gi/o pEC50” value at μOR is 7.821. In addition, the “Arrestin pEC50” value in test [1] is listed as 7.604. The “Arrestin + GRK2 pEC50” value in test [2] is 7.173.

On to `CN(C)[C@H](CNC(=O)NCCc1ccccc1)Cc1ccc(O)cc1` [DD 90], for which the “Gi/o pEC50” value at μOR worked out at 8.371. Further, the “Arrestin pEC50” value in test [1] was 7.272. Besides, in test [2], the “Arrestin + GRK2 pEC50” value is 6.841.

On to `C=CCN(CC(Cc1ccccc1)N(C)C)C(=O)N[C@@H](C)Cc1ccsc1` (stereo partly shown) [DD 93A], for which, on humanDOR (setting [3]), the Ki was roughly 15000 nM.

With `C=CCN(CC(Cc1ccccc1)N(C)C)C(=O)N[C@H](C)Cc1ccsc1` (stereo partly shown) [DD 93B], the inhibitory constant (Ki) at humanDOR (setting [3]) is roughly 15000 nM.

Regarding `CN(CCc1ccccc1)C(=O)NC[C@H](Cc1ccc(O)cc1)N(C)C` [DD 102], the “Gi/o pEC50” value on μOR is on record as 7.421. The “Arrestin pEC50” value in test [1] is 5.703. For the same compound, the “Arrestin + GRK2 pEC50” value in test [2] is given as 5.824.

Turning to `CN(C[C@H](Cc1ccc(O)cc1)N(C)C)C(=O)NCCc1ccccc1` [DD 108], the “Gi/o pEC50” value at μOR came to 7.455. Also, the “Arrestin pEC50” value in test [1] amounted to 5.327. In test [2], the “Arrestin + GRK2 pEC50” value amounted to 5.826.

As for `C[C@@H](Cc1ccsc1)NC(=O)NC[C@H](Cc1ccc(O)c(CO)c1)N(C)C` [DD 131, 1-((S)-2-(dimethylamino)-3-(4-hydroxy-3-(hydroxymethyl)phenyl)propyl)-3-((S)-1-(thiophen-3-yl)propan-2-yl)urea], the “Gi/o pEC50” value at μOR was 8.1. The “Arrestin pEC50” value in test [1] is 6.639. The “Arrestin + GRK2 pEC50” value in test [2] stood at 6.671.

Turning to `CN(C)[C@H](CNC(=O)NCCCN1C(=O)C=CC1=O)Cc1ccc(O)cc1` [DD 138, (S)-1-(2-(dimethylamino)-3-(4-hydroxyphenyl)propyl)-3-(3-(2,5-dioxo-2,5-dihydro-1H-pyrrol-1-yl)propyl)urea], the affinity at MOR (binding affinity Ki [nM] hMOR) corresponds to a Ki of 580 nM.

On to `CN(C)[C@H](CNC(=O)NCCc1cn(Cc2ccccc2)nn1)Cc1ccc(O)cc1` [DD 154, (S)-1-(2-(1-benzyl-1H-1,2,3-triazol-4-yl)ethyl)-3-(2-(dimethylamino)-3-(4-hydroxyphenyl)propyl)urea], for which affinity on humanDOR was put at a Ki of 580 nM.

Take `CN(C)[C@H](CNC(=O)NCCc1cn(CCOCCOCCN=[N+]=[N-])nn1)Cc1ccc(O)cc1` [DD 161, (S)-1-(2-(1-(2-(2-(2-azidoethoxy)ethoxy)ethyl)-1H-1,2,3-triazol-4-yl)ethyl)-3-(2-(dimethylamino)-3-(4-hydroxyphenyl)propyl)urea]: the Ki turned out to be 3000 nM at humanDOR and 1200 nM on hKOR.

Regarding `CN(C)[C@H](CNC(=O)NCCc1cn(CCOCCOCCOCCN=[N+]=[N-])nn1)Cc1ccc(O)cc1` [DD 165, (S)-1-(2-(1-(2-(2-(2-(2-azidoethoxy)ethoxy)ethoxy)ethyl)-1H-1,2,3-triazol-4-yl)ethyl)-3-(2-(dimethylamino)-3-(4-hydroxyphenyl)propyl)urea], the inhibitory constant (Ki) on humanDOR was determined as 3900 nM; on hKOR (binding affinity Ki [nM] hKOR), 2900 nM.

Regarding `CN(C)[C@H](CNC(=O)NCCc1cn(CCOCCOCCOCCOCCOCCNC(=O)CCCC[C@@H]2SC[C@@H]3NC(=O)N[C@@H]32)nn1)Cc1ccc(O)cc1` [DD 170, N-(17-(4-(2-(3-((S)-2-(dimethylamino)-3-(4-hydroxyphenyl)propyl)ureido)ethyl)-1H-1,2,3-triazol-1-yl)-3,6,9,12,15-pentaoxaheptadecyl)-5-((3aS,4S,6aR)-2-oxohexahydro-1H-thieno[3,4-d]imidazol-4-yl)pentanamide], on MOR (read-out: binding affinity Ki [nM] hMOR), the Ki amounted to 13000 nM.

As for `CN(CC1CC1)[C@H](CNC(=O)NCCc1ccccc1)Cc1ccc(O)cc1` [DD 184], the “Gi/o pEC50” value on μOR is reported as 6.253.

As to `CN(C)[C@H](CNC(=O)NCCc1ccccc1F)Cc1ccc(O)cc1` [DDLM-08, (S)-1-(2-(dimethylamino)-3-(4-hydroxyphenyl)propyl)-3-(2-fluorophenethyl)urea], the inhibitory constant (Ki) on humanDOR stood at 53 nM; at hKOR (binding affinity Ki [nM] hKOR), 440 nM; on MOR (binding affinity Ki [nM] hMOR), 43 nM.

On to `CN(C)[C@H](CNC(=O)NCCc1cccc(F)c1)Cc1ccc(O)cc1` [DDLM-10, (S)-1-(2-(dimethylamino)-3-(4-hydroxyphenyl)propyl)-3-(3-fluorophenethyl)urea], for which the Ki at humanDOR was found to be 250 nM; on hKOR (binding affinity Ki [nM] hKOR) it was 170 nM; on MOR (binding affinity Ki [nM] hMOR), 36 nM.

Values taken from patent US10702498B2 (priority 2015, dated 2020).
